# Assay results from ChEMBL document CHEMBL3425435, “4,6-Diarylaminothiazines as BACE1 Inhibitors and Their Use for the Reduction of Beta-Amyloid Production” (ACS Med Chem Lett, 2015).
# Target: Beta-secretase 1 (Homo sapiens, UniProt P56817)
# Experiment: Inhibition of BACE1 in human H4 cells stably transfected with APP751 containing Swedish mutation assessed as reduction in Abeta (1 to 40) and Abeta (1 to 42) production incubated for 19 hrs
# Format: cell-based
# Chain of Beta-secretase 1 (P56817 whole entry): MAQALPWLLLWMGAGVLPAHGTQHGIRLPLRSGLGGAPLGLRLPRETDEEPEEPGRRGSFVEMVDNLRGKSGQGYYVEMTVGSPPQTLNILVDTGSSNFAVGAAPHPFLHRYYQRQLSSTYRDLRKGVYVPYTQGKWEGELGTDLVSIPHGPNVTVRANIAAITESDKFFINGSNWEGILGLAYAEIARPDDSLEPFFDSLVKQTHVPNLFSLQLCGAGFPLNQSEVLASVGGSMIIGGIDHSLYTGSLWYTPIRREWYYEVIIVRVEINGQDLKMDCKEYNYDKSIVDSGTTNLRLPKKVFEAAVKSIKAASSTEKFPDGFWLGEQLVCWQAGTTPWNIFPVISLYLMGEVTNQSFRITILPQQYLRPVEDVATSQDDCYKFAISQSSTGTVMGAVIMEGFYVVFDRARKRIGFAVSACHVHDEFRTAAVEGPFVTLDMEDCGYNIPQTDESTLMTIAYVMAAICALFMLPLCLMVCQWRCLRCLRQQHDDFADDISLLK
row,IC50 [µM],Structure (SMILES)
1,0.022,Cc1noc(C)c1[C@@H]1C[C@@H](c2cc(NC(=O)c3ccc(Br)cn3)ccc2F)N=C(N)S1
2,0.087,Cc1noc(C)c1[C@@H]1C[C@@](C)(c2cc(-c3cccnc3C#N)c(F)cc2F)N=C(N)S1
3,0.11,Cc1noc(CC(C)(C)O)c1[C@@H]1C[C@@](C)(c2ccc(F)cc2F)N=C(N)S1
4,0.06,CC#Cc1cncc(-c2csc([C@@H]3C[C@@H](c4c(C)noc4C)SC(N)=N3)c2)c1
5,0.03,CC#Cc1cncc(-c2cc(Cl)c([C@]3(C)C[C@@H](c4c(C)noc4C)SC(N)=N3)s2)c1
6,0.2,Cc1noc(C)c1[C@@H]1C[C@@H](c2cc(-c3cncnc3)c(F)cc2F)N=C(N)S1
7,0.23,Cc1noc(C)c1[C@@H]1C[C@@H](c2cccc(-c3cncnc3)c2)N=C(N)S1
8,0.3,Cc1noc(C)c1[C@@H]1C[C@@H](c2cc(-c3cccc(C#N)c3)cs2)N=C(N)S1
9,0.008,Cc1noc(C)c1[C@@H]1C[C@@](C)(c2cc(-c3cncnc3)c(F)cc2F)N=C(N)S1
